Source: patent US9694018B1, “IBAT inhibitors for the treatment of liver disease” (Albireo AB, priority 2010, dated 2017)

Test system: Mdr2−/− mice
Assay: In vivo animal model of primary sclerosing cholangitis (Mdr2-/- mice)
Conditions: daily oral gavage for 2-4 weeks, vs vehicle
Description: A genetic mice with targeted disruption of the Multidrug resistant Mdr2 (Abcb4) gene encoding a canalicular phospholipid flippase (Mdr2−/− mice) spontaneously develop sclerosing cholangitis with macroscopic and microscopic features of human Primary sclerosing cholangitis. Bile duct injury in these mice is linked to defective biliary phospholipid secretion resulting in an increased concentration of free non-micellar bile acids which subsequently cause bile duct epithelial cell (cholangiocyte) injury, pericholangitis, periductal fibrosis with ductular proliferation and finally sclerosing cholangitis. […] In analogy to the Mdr2−/− mouse model of sclerosing cholangitis, Multidrug resistant protein MDR3/ABCB4 (the human orthologue of rodent Mdr2/Abcb4) defects play a role in the pathogenesis of various cholangiopathies in humans. MDR3 variants play a role as a modifier gene in the pathogenesis of various cholangiopathies such as PSC, Primary Biliary cirrhosis (PBC) and adulthood idiopathic ductopenia/billary fibrosis.
Mdr2−/− mice were given daily oral doses of the compound of Example 14 by gavage for 2-4 weeks and controls were dosed the vehicle in the same way. Serum liver tests, liver histology and fibrosis were investigated. The compound of Example 14 improves liver tests, liver histology and fibrosis.

## CCCCC1(CCCC)CN(c2ccccc2)c2cc(SC)c(OCC(=O)N[C@@H](C(=O)NCC(=O)O)c3ccccc3)cc2S(=O)(=O)C1 [Example 14, 1,1-Dioxo-3,3-dibutyl-5-phenyl-7-methylthio-8-(N—{(R)-1′-phenyl-1′-[N′-(carboxymethyl)carbamoyl]methyl}carbamoylmethoxy)-2,3,4,5-tetrahydro-1,5-benzothiazepine]
  Serum liver tests: improves
